This note sets out measurements from PubChem BioAssay (NCI).

Values joined by “and” are separate entries in the source; they are usually repeats but may differ in a detail not shown here. Equal entries are not always repeated.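 Exposure lasted 48 hours, with cells grown in 96-well plates and compounds tested at five concentrations. Abbreviation: GI50, concentration required for 50% inhibition of growth. TGI: concentration producing complete growth inhibition.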

What all share (experiment): NCI-60 cell line screen, 48 h
The test system of assay [1] is EKVX NSCLC.
In assay [2] the test system is UACC-257 melanoma.
The test system of assay [3] is UACC-62 melanoma.
The test system of assay [4] is HCC-2998 colon.
The subject of assay [5] is SK-MEL-5 melanoma.
The test system of assay [6] is OVCAR-8 ovarian.
Assay [7] relates to K-562 leukemia.
In assay [8] the test system is SW-620 colon.
For assay [9], the system named is IGROV1 ovarian.
Assay [10] deals with NCI-H522 lung.

For the molecule `Cn1cnc([N+](=O)[O-])c1Sc1ncnc2c1ncn2C1OC(CO)C(O)C1O` (centres undefined), the GI50 is 86.2 µM in [1]; 24.5 µM in [2]; 5.98 µM in [3]; 5.02 µM in assay [4]; 11.4 µM in [5]; 6.19 µM in [6]. Further, the GI50 is 3.35 µM in assay [7], 32.6 µM in assay [8], 11.4 µM in assay [9] and 9.62 µM in assay [10]. Moreover, the TGI in [1], in assay [2], in [3], in assay [4], in [5] and in assay [6] was over 100 µM throughout. Besides, the TGI in [7], in assay [8], in [9] and in assay [10] was over 100 µM in each case.

As for `CCC1(CN(C)C)CC/C(=C\c2ccc3c(c2)OCO3)C1=O` (centres undefined), the TGI in assay [1], in assay [2], in assay [3], in [4], in assay [5] and in assay [6] was over 100 µM in each case. In addition, the TGI in [7], in assay [8], in [9] and in [10] was over 100 µM throughout.

For the molecule `CN(C)c1ccc(/C=C/c2ccnc3ccccc23)cc1`, the GI50 in [1] was 3.19 µM; in [2] it was 22.2 µM; in assay [3] it was 3.11 µM; in assay [4], 5.95 µM; in assay [5], 2.48 µM; in assay [6] it was 5.68 µM. Moreover, the GI50 in assay [7] was 1.66 µM; in [8], 2.96 µM; in [9] it was 5.61 µM; in assay [10], 10.5 µM. Moreover, the TGI in assay [1] is > 100 µM and 30.2 µM; in assay [2] it was > 100 µM and 71.2 µM; in assay [3], > 100 µM and 29.5 µM; in assay [4], > 100 µM and 33 µM; in assay [5] it was > 100 µM and 11.7 µM; in [6], over 100 µM. Moreover, the TGI in assay [7], in assay [8], in [9] and in assay [10] was over 100 µM each time.

Regarding `C[Se]C(=O)CC1=C2C=C(F)C=CC2/C(=C\c2ccc(S(C)=O)cc2)C1C` (centres undefined), the GI50 in [1] is under 0.0113 µM; in assay [2], 0.0875 µM; in assay [3], 0.41 µM; in assay [4], 1.63 µM; in assay [5] it was 0.111 µM; in assay [6], 0.0447 µM. In addition, the GI50 is 1.36 µM in [7], 0.273 µM in assay [8], 0.0972 µM in assay [9] and 0.404 µM in assay [10]. In addition, the TGI in assay [1] is 0.0967 µM; in [2], 2.42 µM; in [3], 2.3 µM; in assay [4], 6.79 µM; in assay [5] it was 0.266 µM; in [6], over 100 µM. Also, the TGI in assay [7] is over 100 µM; in [8], 3.25 µM; in assay [9], 3.17 µM; in assay [10] it was 2.92 µM.

Take `COc1ccc(C(Nc2ncccn2)c2cc3c(cc2O)OCO3)cc1` (centres undefined): the TGI in assay [1] is 55.7 µM; in assay [2], 36.4 µM; in assay [3], over 100 µM; in assay [4], 47.4 µM; in assay [5] it was 50.9 µM; in [6], 45.2 µM. In addition, the TGI was over 100 µM in [7], 28.3 µM in assay [8], 59.3 µM in [9] and 31.7 µM in assay [10].

For `COc1cc(Br)c(CC2=NCCc3cc(OC)c(OC)cc32)cc1OC`, the TGI in assay [1] was over 100 µM; in [2], 70.6 µM; in [3], over 100 µM; in [4], 43.4 µM; in assay [5], 36 µM; in assay [6], over 100 µM. In addition, the TGI is over 100 µM in assay [7], over 100 µM in assay [8], over 100 µM in assay [9] and 65.2 µM in assay [10].

With `COc1ccc2c(c1)OC13Oc4cc(OC)ccc4C=C1CCCC3=C2`, the GI50 in assay [1] was over 100 µM; in assay [2], over 100 µM; in assay [3], 4.5 µM; in [4] it was over 100 µM; in assay [5], 13.6 µM; in assay [6], over 100 µM. The GI50 in assay [7], in [8], in assay [9] and in assay [10] was over 100 µM throughout. Besides, the TGI in assay [1], in [2], in [3], in assay [4], in [5] and in assay [6] was over 100 µM in each case. The TGI in [7], in assay [8], in [9] and in assay [10] was over 100 µM in each case.

`CN(Cc1cnc2nc(N)nc(N)c2n1)c1ccc(C(=O)NC(CCC(=O)O)C(=O)O)cc1` (centres undefined): the GI50 in [1] is 0.399 µM; in assay [2], 0.955 µM; in assay [3] it was 0.145 µM; in [4], 0.0992 µM; in assay [5], 0.443 µM; in [6] it was 0.0532 µM. In addition, the GI50 in [8] is 0.0456 µM; in assay [9], 0.809 µM; in assay [10] it was 0.721 µM. The TGI in [1], in [2], in assay [3], in assay [4], in assay [5] and in [6] was over 100 µM throughout. The TGI in [7], in assay [8], in assay [9] and in assay [10] was over 100 µM each time.

Turning to `O=[N+]([O-])c1ccc(Cl)c(C2SCc3nc4ccccc4n32)c1` (centres undefined), the TGI in [1] is over 100 µM; in [2] it was 93 µM; in assay [3], over 100 µM; in assay [4], over 100 µM; in [5], 30.4 µM; in assay [6], over 100 µM. Moreover, the TGI in assay [7] was over 100 µM; in [8], 88.3 µM; in [9] it was over 100 µM; in assay [10] it was over 100 µM.
